Data as given in patent US9890142B2, “PDE4 inhibitor” (Meiji Seika Pharma Co., Ltd., priority 2013, dated 2018).

Test system: PDE4
Assay: Evaluation of PDE4 inhibition (scintillation proximity assay)
Type: biochemical
Conditions: inhibition rate relative to control, test compound at 1 μM
Outline: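 PDE4 was incubated 120 min at room temperature with [3H]-cAMP and compound in 50 mM Tris-HCl pH 7.5, 8.3 mM MgCl2, 1.7 mM EDTA, 0.3 mg/mL BSA. Product captured on ZnSO4-containing YSi-SPA beads and counted; inhibition calculated against DMSO control after no-enzyme blank subtraction.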

Row | SMILES | PDE4 inhibitory activity (1 μM (%)) [%]
1 | C[C@H]1CNCCN1c1nc2cc(Cl)cc(C(=O)N(C)C)c2o1 [Example 96, (S)-5-Chloro-7-dimethylaminocarbonyl-2-(2-methylpiperazin-1-yl)benzoxazole] | <10
2 | CCN(CC)C(=O)c1cc(Cl)cc2nc(N3CCNC[C@@H]3C)oc12 [Example 97, (S)-5-Chloro-7-diethylaminocarbonyl-2-(2-methylpiperazin-1-yl)benzoxazole] | 10
3 | C[C@H]1CNCCN1c1nc2cc(Cl)cc(C(=O)NO)c2o1 [Example 98, (S)-5-Chloro-7-hydroxyaminocarbonyl-2-(2-methylpiperazin-1-yl)benzoxazole] | <10
4 | C[C@H]1CNCCN1c1nc2cc(Cl)cc(C(=O)O)c2o1 [Example 99, (S)-5-Chloro-7-carboxy-2-(2-methylpiperazin-1-yl)benzoxazole] | <10
5 | CNC(=O)c1cc(Cl)cc2nc(N3CCNC[C@@H]3C)oc12 [Example 100, (S)-5-Chloro-7-methylaminocarbonyl-2-(2-methylpiperazin-1-yl)benzoxazole] | 16
6 | CCNC(=O)c1cc(Cl)cc2nc(N3CCNC[C@@H]3C)oc12 [Example 101, (S)-5-Chloro-7-ethylaminocarbonyl-2-(2-methylpiperazin-1-yl)benzoxazole] | 27
7 | C[C@H]1CNCCN1c1nc2cc(F)cc(-c3ccccn3)c2o1 [Example 102, (S)-5-Fluoro-2-(2-methylpiperazin-1-yl)-7-(pyridin-2-yl)benzoxazole] | 85
8 | C[C@H]1CNCCN1c1nc2cc(F)cc(-c3nccs3)c2o1 [Example 103, (S)-5-Fluoro-2-(2-methylpiperazin-1-yl)-7-(thiazol-2-yl)benzoxazole] | 96
9 | C[C@H]1CNCCN1c1nc2cc(F)cc(-c3ncco3)c2o1 [Example 104, (S)-5-Fluoro-2-(2-methylpiperazin-1-yl)-7-(oxazol-2-yl)benzoxazole] | 88
10 | C[C@H]1CNCCN1c1nc2cc(Cl)cc(-c3ncon3)c2o1 [Example 105, (S)-5-Chloro-2-(2-methylpiperazin-1-yl)-7-(1,2,4-oxadiazol-3-yl)benzoxazole] | 61
11 | C[C@H]1CNCCN1c1nc2cc(Cl)cc(C3=NCCO3)c2o1 [Example 106, (S)-5-Chloro-7-(4,5-dihydro-oxazol-2-yl)-2-(2-methylpiperazin-1-yl)benzoxazole] | 42
12 | COCc1cc(Cl)cc2nc(N3CCNC[C@@H]3C)oc12 [Example 107, (S)-5-Chloro-7-(methoxymethyl)-2-(2-methylpiperazin-1-yl)benzoxazole] | 66
13 | C[C@H]1CNCCN1c1nc2cc(Cl)cc(-c3ccon3)c2o1 [Example 108, (S)-5-Chloro-7-(isoxazol-3-yl)-2-(2-methylpiperazin-1-yl)benzoxazole] | 66
14 | C[C@H]1CNCCN1c1nc2cc(Cl)cc(-c3ccno3)c2o1 [Example 109, (S)-5-Chloro-7-(isoxazol-5-yl)-2-(2-methylpiperazin-1-yl)benzoxazole] | 61
15 | C[C@H]1CNCCN1c1nc2cc(Cl)cc(Br)c2o1 [Example 110, (S)-7-Bromo-5-chloro-2-(2-methylpiperazin-1-yl)benzoxazole] | 57
16 | C[C@H]1CNCCN1c1nc2cc(C#N)cc(-c3ccccn3)c2o1 [Example 111, (S)-5-Cyano-2-(2-methylpiperazin-1-yl)-7-(pyridin-2-yl)benzoxazole] | 83
17 | C[C@H]1CNCCN1c1nc2cc(C#N)cc(-c3nccs3)c2o1 [Example 112, (S)-5-Cyano-2-(2-methylpiperazin-1-yl)-7-(thiazol-2-yl)benzoxazole] | 94
18 | C[C@H]1CNCCN1c1nc2cc(C#N)cc(-c3ncco3)c2o1 [Example 113, (S)-5-Cyano-2-(2-methylpiperazin-1-yl)-7-(oxazol-2-yl)benzoxazole] | 71
19 | Cc1cc(-c2ccccn2)c2oc(N3CCNC[C@@H]3C)nc2c1 [Example 114, (S)-5-methyl-2-(2-methylpiperazin-1-yl)-7-(pyridin-2-yl)benzoxazole] | 77
20 | Cc1cc(-c2nccs2)c2oc(N3CCNC[C@@H]3C)nc2c1 [Example 115, (S)-5-methyl-2-(2-methylpiperazin-1-yl)-7-(thiazol-2-yl)benzoxazole] | 91
21 | Cc1cc(-c2ncco2)c2oc(N3CCNC[C@@H]3C)nc2c1 [Example 116, (S)-5-methyl-2-(2-methylpiperazin-1-yl)-7-(oxazol-2-yl)benzoxazole] | 80

Row | SMILES | PDE4 inhibitory activity (1 μM (%)) [%]
22 | C[C@H]1CNCCN1c1nc2c(C(F)(F)F)c(F)cc(-c3ccccn3)c2o1 [Example 117, (S)-5-Fluoro-2-(2-methylpiperazin-1-yl)-7-(pyridin-2-yl)-4-(trifluoromethyl)benzoxazole] | 88
23 | C[C@H]1CNCCN1c1nc2c(C(F)(F)F)c(F)cc(-c3nccs3)c2o1 [Example 118, (S)-5-Fluoro-2-(2-methylpiperazin-1-yl)-7-(thiazol-2-yl)-4-(trifluoromethyl)benzoxazole] | 99
24 | C[C@H]1CNCCN1c1nc2c(C(F)(F)F)c(F)cc(-n3cccn3)c2o1 [Example 119, (S)-5-Fluoro-2-(2-methylpiperazin-1-yl)-7-(1H-pyrazol-1-yl)-4-(trifluoromethyl)benzoxazole] | 91
25 | C[C@H]1CNCCN1c1nc2c(F)c(Cl)c(F)c(-c3ccccn3)c2o1 [Example 120, (S)-5-Chloro-4,6-difluoro-2-(2-methylpiperazin-1-yl)-7-(pyridin-2-yl)benzoxazole] | 41
26 | C[C@H]1CNCCN1c1nc2c(F)c(Cl)c(F)c(-c3nccs3)c2o1 [Example 121, (S)-5-Chloro-4,6-difluoro-2-(2-methylpiperazin-1-yl)-7-(thiazol-2-yl)benzoxazole] | 62
27 | C[C@H]1CNCCN1c1nc2c(F)c(F)c(F)c(-c3ccccn3)c2o1 [Example 122, (S)-4,5,6-Trifluoro-2-(2-methylpiperazin-1-yl)-7-(pyridin-2-yl)benzoxazole] | 79
28 | C[C@H]1CNCCN1c1nc2c(F)c(F)c(F)c(-c3nccs3)c2o1 [Example 123, (S)-4,5,6-Trifluoro-2-(2-methylpiperazin-1-yl)-7-(thiazol-2-yl)benzoxazole] | 95
29 | C[C@H]1CNCCN1c1nc2c(F)c(F)c(F)c(-n3cccn3)c2o1 [Example 124, (S)-4,5,6-Trifluoro-2-(2-methylpiperazin-1-yl)-7-(1H-pyrazol-1-yl)benzoxazole] | 46
30 | C[C@H]1CNCCN1c1nc2cc(C(F)(F)F)cc(-c3ccccn3)c2o1 [Example 125, (S)-2-(2-Methylpiperazin-1-yl)-7-(pyridin-2-yl)-5-(trifluoromethyl)benzoxazole] | 91
31 | C[C@H]1CNCCN1c1nc2cc(C(F)(F)F)cc(-c3nccs3)c2o1 [Example 126, (S)-2-(2-Methylpiperazin-1-yl)-7-(thiazol-2-yl)-5-(trifluoromethyl)benzoxazole] | 95
32 | C[C@H]1CNCCN1c1nc2cc(C(F)(F)F)cc(-c3ncco3)c2o1 [Example 127, (S)-2-(2-Methylpiperazin-1-yl)-7-(oxazol-2-yl)-5-(trifluoromethyl)benzoxazole] | 90
33 | C[C@H]1CNCCN1c1nc2c(F)c(Cl)cc(-c3ccccn3)c2o1 [Example 128, (S)-5-Chloro-4-fluoro-2-(2-methylpiperazin-1-yl)-7-(pyridin-2-yl)benzoxazole] | 79
34 | C[C@H]1CNCCN1c1nc2c(F)c(Cl)cc(-c3nccs3)c2o1 [Example 129, (S)-5-Chloro-4-fluoro-2-(2-methylpiperazin-1-yl)-7-(thiazol-2-yl)benzoxazole] | 97
35 | C[C@H]1CNCCN1c1nc2c(F)c(Cl)cc(-n3cccn3)c2o1 [Example 130, (S)-5-Chloro-4-fluoro-2-(2-methylpiperazin-1-yl)-7-(1H-pyrazol-1-yl)benzoxazole] | 83
36 | Cc1c(Cl)cc(-c2ccccn2)c2oc(N3CCNC[C@@H]3C)nc12 [Example 131, (S)-5-Chloro-4-methyl-2-(2-methylpiperazin-1-yl)-7-(pyridin-2-yl)benzoxazole] | 90
37 | Cc1c(Cl)cc(-c2nccs2)c2oc(N3CCNC[C@@H]3C)nc12 [Example 132, (S)-5-Chloro-4-methyl-2-(2-methylpiperazin-1-yl)-7-(thiazol-2-yl)benzoxazole] | 94
38 | Cc1c(Cl)cc(-n2cccn2)c2oc(N3CCNC[C@@H]3C)nc12 [Example 133, (S)-5-Chloro-4-methyl-2-(2-methylpiperazin-1-yl)-7-(1H-pyrazol-1-yl)benzoxazole] | 92
39 | C[C@H]1CNCCN1c1nc2c(OC(F)(F)F)c(F)cc(-c3ccccn3)c2o1 [Example 134, (S)-5-Fluoro-2-(2-methylpiperazin-1-yl)-7-(pyridin-2-yl)-4-(trifluoromethoxy)benzoxazole] | 88
40 | C[C@H]1CNCCN1c1nc2c(OC(F)(F)F)c(F)cc(-c3nccs3)c2o1 [Example 135, (S)-5-Fluoro-2-(2-methylpiperazin-1-yl)-7-(thiazol-2-yl)-4-(trifluoromethoxy)benzoxazole] | 99
41 | C[C@H]1CNCCN1c1nc2c(OC(F)(F)F)c(F)cc(-n3cccn3)c2o1 [Example 136, (S)-5-Fluoro-2-(2-methylpiperazin-1-yl)-7-(1H-pyrazol-1-yl)-4-(trifluoromethoxy)benzoxazole] | 90
